Here are results for eleven molecules from US20250368633A1, “AZEPINE FUSED RING COMPOUND AS RIPK1 INHIBITOR AND USE THEREOF” (ARTIVILA BIOPHARMA, priority 2022, published 2025).

A word on the inhibition: it is the drop in the measured response relative to a control, in per cent. As usually defined, the EC50 is the concentration at which the effect is half-maximal.

The target in one test is T1, RIPK1 kinase (Homo sapiens, UniProt Q13546).
T1 construct: purchased Promega VA7593
T1 sequence (Q13546 1-671): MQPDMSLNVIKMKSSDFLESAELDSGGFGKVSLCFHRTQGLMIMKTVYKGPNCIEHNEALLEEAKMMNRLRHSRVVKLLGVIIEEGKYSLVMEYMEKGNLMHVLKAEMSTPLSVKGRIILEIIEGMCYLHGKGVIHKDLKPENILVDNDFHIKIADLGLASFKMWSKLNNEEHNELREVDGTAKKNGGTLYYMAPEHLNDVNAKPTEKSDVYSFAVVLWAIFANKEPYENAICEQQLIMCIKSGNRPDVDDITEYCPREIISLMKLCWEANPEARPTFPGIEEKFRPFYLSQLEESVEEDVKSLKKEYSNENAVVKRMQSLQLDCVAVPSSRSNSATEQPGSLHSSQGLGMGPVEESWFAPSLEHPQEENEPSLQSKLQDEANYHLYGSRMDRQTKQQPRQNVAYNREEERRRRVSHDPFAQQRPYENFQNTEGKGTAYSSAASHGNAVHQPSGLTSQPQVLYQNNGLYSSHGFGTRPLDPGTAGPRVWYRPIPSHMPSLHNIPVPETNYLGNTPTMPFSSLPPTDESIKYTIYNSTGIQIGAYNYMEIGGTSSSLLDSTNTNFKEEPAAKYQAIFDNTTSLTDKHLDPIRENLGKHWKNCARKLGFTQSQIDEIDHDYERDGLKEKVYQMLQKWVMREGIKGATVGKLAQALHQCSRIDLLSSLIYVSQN
Description: In vitro RIPK1 kinase activity assay (ADP-Glo), inhibition by compounds at 1 μM. The note with it: compound 1 μM; ATP 10 μM; MBP substrate 100 μg/mL; read-out: RIPK1 kinase activity inhibition rate range. Type of test: biochemical. On the procedure: RIPK1 kinase activity was assayed using the ADP-Glo assay and RIPK1 kinase reaction system (Promega, catalog number: VA7593). The RIPK1 kinase activity assay was performed according to the Promega kit manual.
The experimental method was briefly described as below. The concentration of RIPK1 kinase in the RIPK1 kinase reaction system was determined by kinase titration and S/B10. Compounds were diluted with 1× kinase buffer D (1% DMSO), and 1 μL of 100 μM compound DMSO stock solution was added to 19 μL 1× kinase buffer D. RIPK1 kinase was diluted with 1× kinase buffer D. 2.5×ATP/substrate was diluted with 1× kinase buffer D. The final concentration of ATP in the kinase reaction system was 10 μM, and the final concentration of MBP substrate was 100 μg/mL. 1 μL of diluted compound and 2 μL of diluted RIPK1 kinase were mixed, incubated at room temperature for 15 minutes, 2 μL of 2.5×ATP/substrate was added, mixed, and incubated at room temperature for 1 hour. 5 μL of ADP-Glo reagent was added to each well and incubated at room temperature for 1 hour. 10 μL of ADP detection reagent was added to each well and incubated at room temperature for another 0.5-1 hour. The chemiluminescent signal was read by a microplate reader and the inhibition rate of kinase activity was calculated.
(In general: In ADP-Glo the light output rises with the ADP produced.)

The test system of test [1] is U937 cells. Briefly: EC50 of necroptosis inhibition in U937 cells (TSZ-induced, CellTiter-Glo). Type of test: cell-based. The note with it: Homo sapiens, U-937; TSZ (hTNF-α, SM-164, Z-VAD-FMK) 20 hours; 10 concentration points; read-out: EC50 intervals of necroptosis inhibition in U937 cells. The method, then:
(§1) The biological activity of RIPK1 inhibitors was further evaluated in the inhibition of necroptosis in U937 cells. U937 cell line was purchased from Huatuo Biotechnology and stored in liquid nitrogen. U937 cells were revived before the experiment and cultured in RPMI-1640 medium (supplemented with 10% fetal bovine serum, 100 U/mL penicillin and 100 μg/mL streptomycin) at 37° C., 5% CO2. The activity was further evaluated by the cellular ATP level detected by the Promega CellTiter-Glo 2.0 Assay cell viability assay kit (Catalog No.: G9242).
The experimental method was briefly described as below. U937 cells in the logarithmic growth phase were collected by centrifugation. Cells were diluted to the cell density of 5×10^5 cells/mL with RPMI 1640 medium (supplemented with 10% fetal bovine serum, 100 U/mL penicillin and 100 μg/mL streptomycin). Cell suspension was added to a white sterile 384-well cell culture plate at 15 μL/well. The test compound was dissolved in DMSO to prepare a 10 mM stock solution. The compound was serially diluted with culture medium at a ratio of 1:3, for a total of 10 concentration points. A control with the same DMSO volume was set, with two replicates for each concentration. The diluted compound was added to the 384-well cell culture plate containing cells at 2.5 μL/well and incubated at 37° C., 5% CO2 for 15 minutes. Z-VAD-FMK (Biyuntian, catalog number: C1202-5 mg) was dissolved in DMSO to prepare a 20 mM stock solution. SM-164 (Biyuntian, catalog number: SC0114-10 mM) was dissolved in DMSO to prepare a 10 mM stock solution and diluted to 0.1 mM. hTNF-α (Sino Biological Inc., catalog number: 10602-HNAE) was dissolved in sterile water to 10 μg/mL. RPMI 1640 medium (supplemented with 10% fetal bovine serum, 100 U/mL penicillin and 100 μg/mL streptomycin) was used to prepare the TSZ mixture, containing 133.3 μM Z-VAD-FMK, 33.3 ng/ml hTNF-α and 0.3 μM SM-164. After 15 minutes' coculture of compounds and cells, 7.5 μL of TSZ mixture was added to each well, mixed evenly, and cultured at 37° C., 5% CO2 for 20 hours. After 20 hours, the culture plate was removed and placed at room temperature for 30 minutes. Then, 10 μL of CellTiter-Glo reagent pre-equilibrated at room temperature was added to each well and incubated. After 10 minutes' incubation at room temperature in the dark, the chemiluminescence were measured using a microplate reader. The inhibition rate was calculated as Inh %=(1−(no TSZ-TSZ & compound)/(no TSZ-TSZ))×100. The EC50 was obtained by fitting the nonlinear regression curve log [inhibitor] vs. response−variable slope (four parameters) in GraphPad Prism.
(In general: ATP-based viability assays read luminescence as a measure of living cells.)

The subject of test [2] is U937 cells. Briefly: Inhibition rate of compound (1 μM) on necroptosis of U937 cells (TSZ-induced, CellTiter-Glo). Type of test: cell-based. The note with it: TSZ (hTNF-α, SM-164, Z-VAD-FMK) 20 hours. On the procedure: as §1
The experimental method was briefly described as below. U937 cells in the logarithmic growth phase were collected by centrifugation. Cells were diluted at the density of 5×10^5 cells/mL with RPMI 1640 medium (supplemented with 10% fetal bovine serum, 100 U/mL penicillin and 100 μg/mL streptomycin). The cell suspension was added to a white sterile 384-well cell culture plate at 15 μL/well. The test compound was dissolved in DMSO to prepare a 10 mM stock solution and diluted to 10 μM with culture medium. At the same time, a control with the same DMSO volume was set up. Two replicates were added for each concentration. The diluted compound was added to the 384-well cell culture plate containing cells at 2.5 µL/well and incubated at 37° C., 5% CO2 for 15 minutes. Z-VAD-FMK (Biyuntian, catalog number: C1202-5 mg) was dissolved in DMSO to prepare a 20 mM stock solution. SM-164 (Biyuntian, catalog number: SC0114-10 mM) was dissolved in DMSO to prepare a 10 mM stock solution and diluted to 0.1 mM. hTNF-α (Sino Biological Inc., catalog number: 10602-HNAE) was dissolved in sterile water to 10 μg/mL. RPMI 1640 medium (supplemented with 10% fetal bovine serum, 100 U/mL penicillin and 100 μg/mL streptomycin) was used to prepare the TSZ mixture, containing 133.3 μM Z-VAD-FMK, 33.3 ng/ml hTNF-α and 0.3 μM SM-164. After 15 minutes' coculture of compounds and cells, 7.5 μL of TSZ mixture was added to each well, mixed evenly, and cultured at 37° C., 5% CO2 for 20 hours. After 20 hours, the culture plate was removed and placed at room temperature for 30 minutes. 10 μL of CellTiter-Glo reagent pre-equilibrated at room temperature was added to each well and incubated for 10 minutes from light. The chemiluminescence was read by a microplate reader. The inhibition rate was calculated as Inh %=(1−(no TSZ-TSZ & compound)/(no TSZ-TSZ))×100.

Regarding `C[C@@H](NC(=O)C(=O)N[C@H]1COc2ccc(C#CCN3CCN(CCOCCOCCOCCC(=O)Nc4cccc5c4CN(C4CCC(=O)NC4=O)C5=O)CC3)cc2N(C)C1=O)c1ccccc1` (mixture of isomers) [Example 164, N^1-((3S)-7-(3-(4-(2-(2-(2-(3-((2-(2,6-dioxopiperidin-3-yl)-1-oxoisoindolin-4-yl)amino)-3-oxopropoxy)ethoxy)ethoxy)ethyl)piperazin-1-yl)prop-1-yn-1-yl)-5-methyl-4-oxo-2,3,4,5-tetrahydrobenzo[b][1,4]oxazepin-3-yl)-N^2-((R)-1-phenylethyl)oxalamide], the inhibition at 1 µM at RIPK1 kinase is ≥ 75%. Further, the EC50 in the test with U937 cells [1] lay in the range of 100 to 500 nM. In the test with U937 cells [2], the “Inhibition rate range of compounds (1 μM) on U937 cell necroptosis” value (“Inhibition rate range of compounds” for short) was “A (A: ≥90%)”.

Take `CN1C(=O)[C@@H](NC(=O)C(=O)NCCc2ccccc2)COc2ccc(Br)cc21` [Example 1, (S)—N^1-(7-bromo-5-methyl-4-oxo-2,3,4,5-tetrahydrobenzo[b][1,4]oxazepin-3-yl)-N^2-phenethyloxalamide]: at RIPK1 kinase, the inhibition at 1 µM lay in the range of 50 to 74%. Moreover, the EC50 with U937 cells [1] was in the range of 100 to 500 nM. Besides, the “Inhibition rate range of compounds” value with U937 cells [2] is “A (A: ≥90%)”.

Consider `CN1C(=O)[C@@H](NC(=O)C(=O)NCCc2ccccc2)COc2ccc(C#CC3CC3)cc21` [Example 2, (S)—N^1-(7-(cyclopropylethynyl)-5-methyl-4-oxo-2,3,4,5-tetrahydrobenzo[b][1,4]oxazepin-3-yl)-N^2-phenethyloxalamide], for which the inhibition at 1 µM at RIPK1 kinase is ≥ 75%. In the test with U937 cells [1], the EC50 was < 100 nM. The “Inhibition rate range of compounds” value with U937 cells [2] was “A (A: ≥90%)”.

With `CN1C(=O)[C@@H](NC(=O)C(=O)NCCc2ccccc2)COc2cc(Br)ccc21` [Example 3, (S)—N^1-(8-bromo-5-methyl-4-oxo-2,3,4,5-tetrahydrobenzo[b][1,4]oxazepin-3-yl)-N^2-phenethyloxalamide], the inhibition at 1 µM on RIPK1 kinase was ≥ 75%. Also, the EC50 in the test on U937 cells [1] lay within 500 to 2000 nM. In addition, the “Inhibition rate range of compounds” value in the test on U937 cells [2] is recorded as “A (A: ≥90%)”.

For the molecule `CN1C(=O)[C@@H](NC(=O)C(=O)NCCc2ccccc2)COc2cc(O)ccc21` [Example 5, (S)—N^1-(8-hydroxy-5-methyl-4-oxo-2,3,4,5-tetrahydrobenzo[b][1,4]oxazepin-3-yl)-N^2-phenethyloxalamide], the inhibition at 1 µM on RIPK1 kinase is ≥ 75%. Moreover, in the test with U937 cells [1], the EC50 fell in the range of 100 to 500 nM. Also, the “Inhibition rate range of compounds” value with U937 cells [2] is reported as “A (A: ≥90%)”.

In the case of `CN1C(=O)[C@@H](NC(=O)C(=O)NCCc2ccccc2)COc2ccc(O)cc21` [Example 6, (S)—N^1-(7-hydroxy-5-methyl-4-oxo-2,3,4,5-tetrahydrobenzo[b][1,4]oxazepin-3-yl)-N^2-phenethyloxalamide], on RIPK1 kinase, the inhibition at 1 µM was in the range of 50 to 74%. Moreover, in the test with U937 cells [1], the EC50 was in the range of 100 to 500 nM. Further, the “Inhibition rate range of compounds” value in the test with U937 cells [2] is on record as “A (A: ≥90%)”.

Turning to `COc1ccc2c(c1)N(C)C(=O)[C@@H](NC(=O)C(=O)NCCc1ccccc1)CO2` [Example 8, (S)—N^1-(7-methoxy-5-methyl-4-oxo-2,3,4,5-tetrahydrobenzo[b][1,4]oxazepin-3-yl)-N^2-phenethyloxalamide], on RIPK1 kinase, the inhibition at 1 µM was ≥ 75%. For the same molecule, in the test with U937 cells [1], the EC50 fell in the range of 100 to 500 nM. Besides, the “Inhibition rate range of compounds” value with U937 cells [2] is given as “A (A: ≥90%)”.

As to `C=CCOc1ccc2c(c1)N(C)C(=O)[C@@H](NC(=O)C(=O)NCCc1ccccc1)CO2` [Example 9, (S)—N^1-(7-(allyloxy)-5-methyl-4-oxo-2,3,4,5-tetrahydrobenzo[b][1,4]oxazepin-3-yl)-N^2-phenethyl oxalamide], the inhibition at 1 µM at RIPK1 kinase was ≥ 75%. Also, the EC50 in the test with U937 cells [1] was 100 to 500 nM. The “Inhibition rate range of compounds” value in the test with U937 cells [2] is reported as “A (A: ≥90%)”.

`CN1C(=O)[C@@H](NC(=O)C(=O)NCCc2ccccc2F)COc2ccccc21` [Example 99, (S)—N^1-(2-fluorophenethyl)-N^2-(5-methyl-4-oxo-2,3,4,5-tetrahydrobenzo[b][1,4]oxazepin-3-yl)oxalamide]: at RIPK1 kinase, the inhibition at 1 µM lay within 50 to 74%. Moreover, in the test on U937 cells [2], the “Inhibition rate range of compounds” value is given as “B (B: 50-89%)”.

Regarding `CN1C(=O)[C@@H](NC(=O)C(=O)NCCc2cccc(Cl)c2)COc2ccccc21` [Example 101, (S)—N^1-(3-chlorophenethyl)-N^2-(5-methyl-4-oxo-2,3,4,5-tetrahydrobenzo[b][1,4]oxazepin-3-yl)oxalamide], at RIPK1 kinase, the inhibition at 1 µM is 25 to 49%.

Turning to `CN1C(=O)[C@@H](NC(=O)C(=O)NCCOc2ccccc2)COc2ccccc21` [Example 103, (S)—N^1-(5-methyl-4-oxo-2,3,4,5-tetrahydrobenzo[b][1,4]oxazepin-3-yl)-N^2-(2-phenoxyethyl)oxalamide], the inhibition at 1 µM on RIPK1 kinase was in the range of 25 to 49%. The EC50 with U937 cells [1] is 500 to 2000 nM.
